The test system of the assay is Symmetric di-Methyl Arginine in Z-138 cells. Briefly: Z-138 Methylation Assay (In Cell Western for symmetric di-methyl arginine). It counts as cell-based. The following applies: Homo sapiens, 96 hours incubation, symmetric di-methyl arginine normalised to DNA content, read-out: ICW EC50. The procedure, abridged:
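Z-138 cells were treated with compound for 96 h at 37 °C, then fixed on poly-D-lysine plates. Symmetric di-methyl arginine was detected by In-Cell Western (800 nm) with DRAQ5 DNA normalisation (700 nm). Percent inhibition used DMSO and 3 μM reference-compound controls; IC50 curves came from triplicate wells.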
Broadly, the EC50 is the concentration needed to bring the measured effect to its halfway point. For the molecule `CC(=O)N1CC(Nc2cc(C(=O)NC[C@H](O)CN3CCc4c(cnn4C)C3)ncn2)C1` [Compound 3-29], the EC50 was > 1000 nM.
Take `O=C(COc1cccc2cccnc12)NCC(O)CN1CCc2ccsc2C1` (stereo not drawn) [Compound 1-5, N-(2-hydroxy-3-{4H,5H,6H,7H-thieno[2,3-c]pyridin-6-yl}propyl)-2-(quinolin-8-yloxy)acetamide]: the EC50 lay in the range of 101 to 1000 nM.
Take `CC(=O)N1CCC(Nc2cc(C(=O)NC[C@H](O)CN3CCc4ncn(C)c4C3)ncn2)CC1` [Compound 3-30, (S)-6-((1-acetylpiperidin-4-yl)amino)-N-(2-hydroxy-3-(3-methyl-6,7-dihydro-3H-imidazo[4,5-c]pyridin-5(4H)-yl)propyl)pyrimidine-4-carboxamide]: the EC50 was > 1000 nM.

The record behind these values is patent US20170210751A1, “PRMT5 INHIBITORS AND USES THEREOF” (Epizyme, Inc., priority 2014, published 2017).
